From patent US20030190603A1, “Method and system for predicting therapeutic agent resistance and for defining the genetic basis of drug resistance using neural networks” (priority 2003, published 2003)
Like-named read-outs stand apart in the source and are kept apart here.

Experiments:
HIV-1 [1] = conditions: drug - cut-off, Larder & Harrigan AIDS 2000; cited from earlier work
HIV-1 [2] = conditions: cited from earlier work
[3] = tested on: patient's recombinant virus (HIV-1); test: Phenotypic susceptibility, MT-4 cell viral cytopathic effect protection assay (fold resistance vs wild-type control virus); type: cell-based
Description: Phenotypic susceptibility was determined using a MT-4 cell viral cytopathic effect protection assay. See, e.g., Kashiwase et al., Chemotherapy 45(1):48-55 (1999), expressly incorporated herein by reference; Larder et al., Antimicrob. Agents Chemother. 43(8): 1961-1967 (1999). […] The procedure is also described in WO 97/27480.

[4] = HIV-1 mutation 333D/E in addition to M184V

With O=C1Nc2ccc(Cl)cc2[C@@](C#CC2CC2)(C(F)(F)F)O1 [DMP266] as the compound, how does the “Biological cut-off (fold resistance)” value (HIV-1 [1]) read?
The value was 6.0.

With Cc1cccc(C)c1OCC(=O)N[C@@H](Cc1ccccc1)[C@@H](O)C[C@H](Cc1ccccc1)NC(=O)[C@H](C(C)C)N1CCCNC1=O [Lopinavir] as the compound, how does the “Biological cut-off (fold resistance)” value (HIV-1 [1]) read?
The value was 2.5.

For CC(C)(C)NC(=O)[C@@H]1CN(Cc2cccnc2)CCN1C[C@@H](O)C[C@@H](Cc1ccccc1)C(=O)N[C@H]1c2ccccc2C[C@H]1O [Indinavir], which “Biological cut-off (fold resistance)” value (HIV-1 [1]) is on record?
Its value is 3.0.

Which “Biological cut-off (fold resistance)” value (HIV-1 [1]) does the source give for CC(C)Nc1cccnc1N1CCN(C(=O)c2cc3cc(NS(C)(=O)=O)ccc3[nH]2)CC1 [Delavirdine] here?
The value was 10.0.

For CC(C)CN(C[C@@H](O)[C@H](Cc1ccccc1)NC(=O)O[C@H]1CCOC1)S(=O)(=O)c1ccc(N)cc1 [VX-478], which “Biological cut-off (fold resistance)” value (HIV-1 [1]) is on record?
The value was 2.0.

And the “Effect of mutation on susceptibility in vitro” value (HIV-1 [2]; HIV-1 mutation N88S)?
The value was “hypersensitivity”.

What does the source list for Cc1cn([C@H]2C[C@H](N=[N+]=[N-])[C@@H](CO)O2)c(=O)[nH]c1=O [AZT, 3′-azido-3′-deoxythymidine]?
Biological cut-off (fold resistance) (HIV-1 [1]): 4.0; Effect of mutation on resistance (HIV-1 [2]; [4]): dual AZT/3TC resistance; Effect of mutation on resistance (HIV-1 [2]; HIV-1 mutation M184V): reverses AZT resistance

With Nc1nc(NC2CC2)c2ncn([C@H]3C=C[C@@H](CO)C3)c2n1 [1592 U89] as the compound, how does the “Drug resistance level (from the phenotypic data)” value (shortened to “Drug resistance level”) ([3]; test sample 1) read?
The value was “S/S (A fold resistance of less than or equal to 4 is considered to be)”.

And the “Drug resistance level” value ([3]; test sample 2)?
The value was “S (A fold resistance of less than or equal to 4 is considered to be)”.

And the “Drug resistance level” value ([3]; test sample 3)?
The value was “S/S (A fold resistance of less than or equal to 4 is considered to be)”.

What about the “Drug resistance level” value ([3]; test sample 4) of the same compound?
The value was “S/S (A fold resistance of less than or equal to 4 is considered to be)”.

What about the “Drug resistance level” value ([3]; test sample 5) of the same compound?
Its value is “S/S (A fold resistance of less than or equal to 4 is considered to be)”.

And the “Drug resistance level” value ([3]; test sample 6)?
Its value is “I (greater than 4 and less than 10 is considered to be)”.

What about the “Drug resistance level” value ([3]; test sample 7) of the same compound?
The value was “S/S (A fold resistance of less than or equal to 4 is considered to be)”.

And the “Drug resistance level” value ([3]; test sample 8)?
Its value is “I (greater than 4 and less than 10 is considered to be)”.

What about the “Drug resistance level” value ([3]; test sample 9) of the same compound?
The value was “S/S (A fold resistance of less than or equal to 4 is considered to be)”.

And the “Drug resistance level” value ([3]; test sample 10)?
The value was “S/S (A fold resistance of less than or equal to 4 is considered to be)”.

What about the “Biological cut-off (fold resistance)” value (HIV-1 [1]) of the same compound?
The value was 3.0.

With CC(C)(C)NC(=O)[C@@H]1C[C@@H]2CCCC[C@@H]2CN1C[C@@H](O)[C@H](Cc1ccccc1)NC(=O)[C@H](CC(N)=O)NC(=O)c1ccc2ccccc2n1 [Saquinavir] as the compound, how does the “Biological cut-off (fold resistance)” value (HIV-1 [1]) read?
Its value is 2.5.

With CC(C)c1nc(CN(C)C(=O)N[C@H](C(=O)N[C@@H](Cc2ccccc2)C[C@H](O)[C@H](Cc2ccccc2)NC(=O)OCc2cncs2)C(C)C)cs1 [Ritonavir] as the compound, how does the “Biological cut-off (fold resistance)” value (HIV-1 [1]) read?
Its value is 3.5.

Which “Drug resistance level” value ([3]; test sample 1) does the source give for Nc1ccn([C@@H]2CS[C@H](CO)O2)c(=O)n1 [3TC] here?
Its value is “S/S (A fold resistance of less than or equal to 4 is considered to be)”.

What about the “Drug resistance level” value ([3]; test sample 2) of the same compound?
Its value is “R/R (if the value is greater than 10, it is considered to be)”.

What about the “Drug resistance level” value ([3]; test sample 3) of the same compound?
The value was “R/R (if the value is greater than 10, it is considered to be)”.

What about the “Drug resistance level” value ([3]; test sample 4) of the same compound?
Its value is “S/S (A fold resistance of less than or equal to 4 is considered to be)”.

And the “Drug resistance level” value ([3]; test sample 5)?
The value was “R/R (if the value is greater than 10, it is considered to be)”.

And the “Drug resistance level” value ([3]; test sample 6)?
Its value is “R (if the value is greater than 10, it is considered to be)”.

What about the “Drug resistance level” value ([3]; test sample 7) of the same compound?
The value was “R/R (if the value is greater than 10, it is considered to be)”.

And the “Drug resistance level” value ([3]; test sample 8)?
Its value is “R/R (if the value is greater than 10, it is considered to be)”.

What about the “Drug resistance level” value ([3]; test sample 9) of the same compound?
The value was “R/R (if the value is greater than 10, it is considered to be)”.

And the “Drug resistance level” value ([3]; test sample 10)?
The value was “S/S (A fold resistance of less than or equal to 4 is considered to be)”.

And the “Biological cut-off (fold resistance)” value (HIV-1 [1])?
The value was 4.5.

What about the “Effect of mutation on resistance” value (HIV-1 [2]; [4]) of the same compound?
The value was “dual AZT/3TC resistance”.

What about the “Effect of mutation on resistance” value (HIV-1 [2]; HIV-1 mutation M184V) of the same compound?
Its value is “confers resistance”.

For OC[C@@H]1CC[C@H](n2cnc3c(O)ncnc32)O1 [DDI, 2′,3′-dideoxyinosine], which “Biological cut-off (fold resistance)” value (HIV-1 [1]) is on record?
Its value is 2.0.

For Cc1c(O)cccc1C(=O)N[C@@H](CSc1ccccc1)[C@H](O)CN1C[C@H]2CCCC[C@H]2C[C@H]1C(=O)NC(C)(C)C [Nelfinavir], which “Biological cut-off (fold resistance)” value (HIV-1 [1]) is on record?
Its value is 4.0.

With Cc1cn([C@H]2C=C[C@@H](CO)O2)c(=O)[nH]c1=O [D4T] as the compound, how does the “Mean fold change of IC50” value ([3]; 92 of 188 test samples with d4T IC50<3-fold) read?
Its value is 1.1 fold.

What about the “Mean fold change of IC50” value ([3]; 96 of 188 test samples with d4T IC50>3-fold) of the same compound?
Its value is 7.7 fold.

And the “Mean fold change of IC50” value ([3]; 1040 of 2286 samples with d4T IC50<3-fold)?
The value was 1.2 fold.

What about the “Mean fold change of IC50” value ([3]; 1246 of 2286 samples with d4T IC50>3-fold) of the same compound?
Its value is 9.0 fold.

What about the “Biological cut-off (fold resistance)” value (HIV-1 [1]) of the same compound?
The value was 1.75.

With Cc1ccnc2c1NC(=O)c1cccnc1N2C1CC1 [Nevirapine] as the compound, how does the “Biological cut-off (fold resistance)” value (HIV-1 [1]) read?
The value was 8.0.

Which “Biological cut-off (fold resistance)” value (HIV-1 [1]) does the source give for Nc1ccn([C@H]2CC[C@@H](CO)O2)c(=O)n1 [DDC] here?
Its value is 2.0.
